From US20230226228A1, “POSITRON IMAGING TOMOGRAPHY IMAGING AGENT COMPOSITION AND METHOD FOR DETECTION OF BACTERIAL INFECTION” (priority 2020, published 2023) come the findings set out here.

Series [1] is described as follows: In vivo metabolite analysis in blood and urine of healthy rats (radio-HPLC). On the set-up: species or system Sprague-Dawley rats. As for the experimental part: FIG. 7. Analysis of metabolites in the plasma and urine of healthy rats after intravenous injection (IV) of 2-[^18F]F-ENB. After IV administration of 2-[^18F]F-ENB, the animals were sacrificed at each time point (n=3 rats) and the blood and urine samples were collected for radio-HPLC analysis. […] The percent of each metabolite in blood (B) and urine (C) is shown.
2-[^18F]F-ENB (1 mCi) was injected via the tail vein into healthy female Sprague-Dawley rats (10 weeks old, Charles River). […] The mixture was centrifuged at 13 400 rpm for 5 min to remove the protein, and the supernatant and protein pellet were analyzed by gamma counter to determine the efficiency of extraction. […] The radioactive fractions corresponding to each cold standard were collected and analyzed using a gamma counter from which the percentage of each metabolite was calculated (n=3).
Analysis of the radioactive metabolites in the urine was performed using a similar procedure from samples obtained from the bladder 30 and 60 min after tracer injection. The urine was diluted with 45% MeCN/H2O, centrifuged at 13 400 rpm for 5 min and spiked with cold standards for radio-HPLC analysis.

Series [2] deals with S. aureus Xen29. The series can be described thus: PET imaging of infective endocarditis rat model. In kind it is in vivo, Sprague-Dawley rats. To be noted: day-3 post infection, 60 min and 120 min post tracer injection. An excerpt:
Female Sprague-Dawley rats (weight, ˜200 g, Charles River) were maintained in an anesthetized state with an isofluorane-oxygen gas mixture during surgery. A sterile polyethylene catheter was placed and positioned in the left ventricle through a small incision via the retrograde transcarotid artery approach.
The catheter was left in place throughout the experiments. At 24-hour post-catheterization, the rats were infected intravenously through the tail vein with an inoculum of S. aureus Xen29 of 10^6 CFU in 0.5 mL sterile saline. The animals were imaged for bioluminescence signal in the region of the hearts with IVIS daily after infection. The optimal BLI signal over the heart area was determined to be day-3 post inoculation (FIG. 15A and FIG. 16A).

A further series concerns S. aureus Xen36. The series can be described thus: PET imaging of prosthetic joint infection (PJI) mouse model. Type of series: in vivo, Balb/c mice. To be noted: day-2 post infection, 60 min and 120 min post tracer injection. As for the experimental part: Balb/c mice was anesthetized by inhalation of a mixture of isofluorane and oxygen. A medical-grade stainless steel Kirschner wire was inserted into the distal part of the femur which has been exposed by dislocation of the patella and reamed with a 25-gauge needle. 2 μL of S. aureus Xen36 (4 log 10 CFU) will be inoculated into the knee joint and onto the wire before the surgical incision is closed with absorbable sutures. The correct position of the wire in the canal was performed with X-ray scan. The animals were imaged for bioluminescence signal in the region of the surgical joint with IVIS daily after infection. The optimal BLI signal over the joint area was determined to be day-2 post inoculation (FIG. 20A).

Series [3] is classed as in vitro ADME, Sprague-Dawley rat. To be noted: rat serum, 85 min incubation. As for the experimental part:
FIG. 6. In vitro metabolic stability of 2-[^18F]F-ENB in rat and human plasma. (a-d) HPLC traces of metabolites of 2-[^18F]F-ENB incubated with rat plasma at different time points (2 min, 10 min, 30 min, 85 min) and spiked with cold standards.
2-[^18F]F-ENB (600 μCi) was incubated with Sprague-Dawley rat plasma (5.0 mL) at 37° C. Subsequently, 0.4 mL aliquots of the plasma were taken 2, 10, 30, and 85 min after addition of the tracer, and 0.6 mL of MeCN was added to quench the metabolism. The mixture was centrifuged at 13 400 rpm for 10 min to remove proteins, and both the supernatant and the protein pellet were analyzed by gamma counting to calculate the extraction efficiency. […] The radioactive fractions corresponding to each cold standard were collected and radioactivity was quantified using a gamma counter from which the percentage of each metabolite was calculated.

Series [4] deals with S. aureus Xen29. The series can be described thus: PET/CT imaging of rat triceps infection / sterile inflammation model (S. aureus Xen29). Type of series: in vivo, Sprague-Dawley rats. To be noted: 180 min post tracer injection. As for the experimental part: FIG. 5. PET/CT imaging of rats infected in the right triceps with the bioluminescent Xen29 strain of S. aureus. (A) Experimental design. (B) 2-[^18F]F-ENB-derived radioactivity accumulates in the infected triceps (red arrow) but not the inflamed triceps (yellow arrow) at 3 h post tracer administration.
FIG. 8. PET/CT imaging of 2-[^18F]F-NB in a rat model of S. aureus Xen29 infection. (A) Radiosynthesis of 2-[^18F]F-NB. (i) [^18F]potassium fluoride, Kryptofix222, potassium carbonate, dimethyl sulfoxide, r.t., 10 min; (ii) 2 M potassium hydroxide in H2O, 105° C., 10 min; Overall decay-corrected radiochemical yield: 26% (n=1).
FIG. 10. Time activity curve (TAC) in infected triceps, inflamed triceps and blood and biodistribution of 2-[^18F]F-NB in major organs. (a) The right triceps of the rats were infected with S. aureus Xen 29 and the left triceps were injected with a 10-fold higher burden of heat-killed S. aureus to induce sterile inflammation. The rats were scanned by PET/CT for 120 min (rats with sterile inflammation in the left triceps) immediately starting from tracer administration. The PET scan was separated into ten frames (1-min) and twenty-two frames (5-min). TACs of infected triceps (blue), inflamed triceps (grey) and blood (left heart ventricle, red) are shown. Data represented as mean with standard error of the mean (n=4). (b) Time-dependent accumulation of 2-[^18F]F-NB in infected and inflamed triceps compared to the blood (left heart ventricle). Data are presented as the mean and standard error of the mean (n=4). […]
S. aureus (Newman or Xen29) was cultured overnight by inoculating 5 μL of bacteria from a glycerol stock into 10 mL of fresh cation-adjusted Mueller-Hinton (CAMH) broth or tryptic soy broth (TSB). […] After imaging, the infected triceps were collected, homogenized in PBS using a hand-held homogenizer, and the bacterial burden at the time of imaging was determined by plating the muscle tissues onto solid MH medium. After overnight incubation at 37° C., CFUs were quantified by enumeration. […]

Turning to `CCOC(=O)c1ccc([N+](=O)[O-])cc1[18F]` [2-[^18F]F-ENB, Ethyl 2-[^18F]F-4-nitrobenzoate], in series [1] (blood at 5, 30 and 60 min), the “radioactive components in blood after IV administration” value was 2-[^18F]F-NB was the predominant radioactive component at each time point. In series [1] (urine at 30 and 60 min post injection), the “radioactive components in urine after IV administration” value is “the majority of the radioactive signal could be attributed to 2-[^18F]F-NB”. Moreover, in the series on S. aureus Xen29 [2], the “PET signal over the heart region” value is listed as “a robust radioactive signal was detected over the heart region”. In addition, the “PET signal over the joint region” value in the series on S. aureus Xen36 is “a robust radioactive signal was detected over the joint region”. Moreover, in series [3], the “stability of the nitro group” value is “the nitro group was unaffected”. For the same molecule, the “localisation of radioactive signal” value with S. aureus Xen29 [4] is listed as “predominantly observed in the infected triceps”.
